Assay results as given in paper PMC8003321, “5-Aryl-1-Arylideneamino-1H-Imidazole-2(3H)-Thiones: Synthesis and In Vitro Anticancer Evaluation” (Molecules, 2021).

Tests used:
[1] = test system: MCF-7 (breast cancer cell line); assay: MTT cytotoxicity assay, MCF-7; assay type: cell-based; settings: Homo sapiens, MCF7, 24 h, 24 h treatment, mean of three experiments
Method: (§1) The effect of imidazole molecules 4a–e and 5 on the viability of three cancer cell lines were studied using the MTT assay. The cytotoxicity was assessed using Docetaxel (DOC) as a standard antitumor drug. The three cancer cell lines were MCF-7 (breast cancer cell line), colon carcinoma (HCT-116), and HepG2 (hepatocellular carcinoma cell line). […] Moreover, the safety of compounds 4d and 5 was assessed against a normal breast cell line (MCF-10A) using the MTT assay.
(§2) Antitumor activity of the newly prepared imidazole compounds 4a–e and 5 were carried out against MCF-7, HepG2, HCT-116, and MCF-10A using the MTT assay method. Cells at a density of 1 × 10^4 were seeded in 96-well plates at 37 °C for 48 h under 5% CO2. After incubation, the cells were treated with different concentrations of the prepared molecules and incubated for 24 h. MTT dye was added at the end of 24 h of drug treatment and incubated for 4 h at 37 °C. Next, 100 µL of dimethyl sulfoxide was added to each well to dissolve the purple formazan formed. The color intensity of the formazan product, which represents the growth condition of the cells, is quantified using an ELISA plate reader at 570 nm. The experimental conditions were carried out with at least three replicates and the experiments were repeated at least three times.

[2] = test system: HepG2 (hepatocellular carcinoma cell line); assay: MTT cytotoxicity assay, HepG2; assay type: cell-based; settings: Homo sapiens, HepG2, 24 h, 24 h treatment, mean of three experiments
Method: as §1, §2

[3] = test system: colon carcinoma (HCT-116); assay: MTT cytotoxicity assay, HCT-116; assay type: cell-based; settings: 24 h treatment, mean of three experiments
Method: as §1, §2

[4] = test system: normal breast cell line (MCF-10A); assay: MTT cytotoxicity assay, normal breast cell line MCF-10A; assay type: cell-based; settings: for IC50: Homo sapiens, MCF-10A, 24 h treatment
Method: as §1, §2

MCF-7 cells [5] = assay: Cell cycle analysis by DNA flow cytometry; assay type: cell-based; settings: MCF-7, compound at its IC50, 48 h; for percentage of cells at pre-G1 phase: control 1.61%; for percentage of cell population at the G2/M phase: control 8.79%
Method: Therefore, it can be concluded that compounds 4d and 5 inhibit the cell proliferation of MCF-7 cells via cell cycle arrest at the G2/M phase and induction of apoptosis (Figure 2).
MCF-7 cells (2 × 10^5/well) were harvested and washed twice in PBS. After that, cells were incubated at 37 °C and 5% CO2. The medium was replaced with DMSO (1% v/v) containing the tested compounds, then incubated for 48 h, washed twice in PBS, fixed with 70% ethanol, rinsed again with PBS, and then stained with DNA fluorochrome PI for 15 min at 37 °C. DNA content was analyzed by flow cytometry on a FACS Calibur flow cytometer (Becton and Dickinson, Heidelberg, Germany).

MCF-7 cells [6] = assay: Annexin V-FITC/PI apoptosis induction analysis; assay type: cell-based; settings: MCF-7, compound at its IC50, 48 h; for percent of early apoptosis: lower right quadrant, control 0.43%; for percent of late apoptosis: upper right quadrant, control 0.23%
Method: Several imidazole molecules have been reported in the literature as apoptosis inducers in several tumor cell lines. To evaluate the mode of cell death induced by compounds 4d and 5, Annexin V/FITC and propidium iodide (PI) assays were performed. MCF-7 cells were treated with compounds 4d and 5 at their IC50 concentration dose value for 48 h.
Apoptosis in MCF-7 cells was investigated using fluorescent Annexin V-FITC/PI detection kit by flow cytometry assay. Briefly, MCF-7 cells (2 × 10^5) after incubation for 12 h. Cells were treated with compounds 4d and 5 at their IC50 concentration for 48 h, then the cells were harvested and stained with Annexin V-FITC/PI dye for 15 min in the dark at 37 °C. Flow cytometry analyses were performed using a FACS Calibur flow cytometer (Becton and Dickinson, Heidelberg, Germany).

human VEGFR-2 = target: T1, human VEGFR-2 (Homo sapiens, UniProt P35968); assay: In vitro VEGFR-2 kinase assay (ELISA); assay type: biochemical; settings: n = 3, read-out: IC50 against VEGFR-2 kinase (converted)
T1 construct: purchased
Method: To investigate the possible molecular mechanism underlying the potent anticancer activity of compounds 4d and 5. Their inhibitory activity against VEGFR-2 kinase was determined using an ELISA assay.
(§3) A total of 100 µL of standard solution and tested molecules were pipetted into the 96-wells and VEGFR-2 was bound to the wells by the immobilized antibody. The wells were washed and biotinylated antihuman VEGFR-2 antibody was added. After washing away unbound biotinylated antibody, 100 µL of conjugated streptavidin solution was pipetted into the wells. After washing, 100 µL of TMB substrate solution was added to the wells for 30 min at 37 °C. Stop solution (50 µL) was added, and the intensity of the color was measured immediately at 450 nm.

B-Raf^V600E = target: T2, B-Raf^V600E (Homo sapiens, UniProt P15056, V600E); assay: In vitro B-Raf kinase assay (ELISA); assay type: biochemical; settings: n = 3, read-out: IC50 against B-Raf^V600E (converted)
T2 construct: purchased
Method: Raf is a protein kinase that initiates a cascade of other protein kinases by acting on the protein kinases MEK-1 and MEK-2 [21].
as §3, with “Next, 100” for “A total of 100”, “and B-RAF” for “and VEGFR-2”, “antihuman B-Raf” for “antihuman VEGFR-2”, “color is” for “color was”

MCF-7 cell line = test system: MCF-7 cell line; design: method as in PMID 32757353; settings: read-out: IC50 against MCF-7 cell line; cited from earlier work

T2 sequence (P15056 whole entry V600E): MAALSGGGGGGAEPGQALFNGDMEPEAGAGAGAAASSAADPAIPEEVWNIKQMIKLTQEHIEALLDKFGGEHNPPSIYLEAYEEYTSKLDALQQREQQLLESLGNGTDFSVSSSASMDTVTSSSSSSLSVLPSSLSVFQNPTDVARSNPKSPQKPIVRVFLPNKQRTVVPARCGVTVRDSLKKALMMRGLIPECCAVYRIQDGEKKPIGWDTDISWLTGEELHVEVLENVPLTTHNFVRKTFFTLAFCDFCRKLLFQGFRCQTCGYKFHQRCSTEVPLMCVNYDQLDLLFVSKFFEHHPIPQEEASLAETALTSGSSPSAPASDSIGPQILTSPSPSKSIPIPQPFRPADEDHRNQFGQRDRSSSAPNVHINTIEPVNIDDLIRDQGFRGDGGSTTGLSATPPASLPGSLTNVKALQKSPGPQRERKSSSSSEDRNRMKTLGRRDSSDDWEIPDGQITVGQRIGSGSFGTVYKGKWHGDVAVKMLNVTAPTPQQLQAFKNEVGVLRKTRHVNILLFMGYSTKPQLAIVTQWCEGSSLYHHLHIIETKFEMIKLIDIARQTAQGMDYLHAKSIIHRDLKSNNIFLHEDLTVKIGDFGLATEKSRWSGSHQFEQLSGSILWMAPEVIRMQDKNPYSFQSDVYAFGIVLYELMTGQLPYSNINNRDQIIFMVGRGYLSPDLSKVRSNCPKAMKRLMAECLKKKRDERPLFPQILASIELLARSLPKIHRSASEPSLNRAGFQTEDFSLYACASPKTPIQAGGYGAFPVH
T1 sequence (P35968 20-1356): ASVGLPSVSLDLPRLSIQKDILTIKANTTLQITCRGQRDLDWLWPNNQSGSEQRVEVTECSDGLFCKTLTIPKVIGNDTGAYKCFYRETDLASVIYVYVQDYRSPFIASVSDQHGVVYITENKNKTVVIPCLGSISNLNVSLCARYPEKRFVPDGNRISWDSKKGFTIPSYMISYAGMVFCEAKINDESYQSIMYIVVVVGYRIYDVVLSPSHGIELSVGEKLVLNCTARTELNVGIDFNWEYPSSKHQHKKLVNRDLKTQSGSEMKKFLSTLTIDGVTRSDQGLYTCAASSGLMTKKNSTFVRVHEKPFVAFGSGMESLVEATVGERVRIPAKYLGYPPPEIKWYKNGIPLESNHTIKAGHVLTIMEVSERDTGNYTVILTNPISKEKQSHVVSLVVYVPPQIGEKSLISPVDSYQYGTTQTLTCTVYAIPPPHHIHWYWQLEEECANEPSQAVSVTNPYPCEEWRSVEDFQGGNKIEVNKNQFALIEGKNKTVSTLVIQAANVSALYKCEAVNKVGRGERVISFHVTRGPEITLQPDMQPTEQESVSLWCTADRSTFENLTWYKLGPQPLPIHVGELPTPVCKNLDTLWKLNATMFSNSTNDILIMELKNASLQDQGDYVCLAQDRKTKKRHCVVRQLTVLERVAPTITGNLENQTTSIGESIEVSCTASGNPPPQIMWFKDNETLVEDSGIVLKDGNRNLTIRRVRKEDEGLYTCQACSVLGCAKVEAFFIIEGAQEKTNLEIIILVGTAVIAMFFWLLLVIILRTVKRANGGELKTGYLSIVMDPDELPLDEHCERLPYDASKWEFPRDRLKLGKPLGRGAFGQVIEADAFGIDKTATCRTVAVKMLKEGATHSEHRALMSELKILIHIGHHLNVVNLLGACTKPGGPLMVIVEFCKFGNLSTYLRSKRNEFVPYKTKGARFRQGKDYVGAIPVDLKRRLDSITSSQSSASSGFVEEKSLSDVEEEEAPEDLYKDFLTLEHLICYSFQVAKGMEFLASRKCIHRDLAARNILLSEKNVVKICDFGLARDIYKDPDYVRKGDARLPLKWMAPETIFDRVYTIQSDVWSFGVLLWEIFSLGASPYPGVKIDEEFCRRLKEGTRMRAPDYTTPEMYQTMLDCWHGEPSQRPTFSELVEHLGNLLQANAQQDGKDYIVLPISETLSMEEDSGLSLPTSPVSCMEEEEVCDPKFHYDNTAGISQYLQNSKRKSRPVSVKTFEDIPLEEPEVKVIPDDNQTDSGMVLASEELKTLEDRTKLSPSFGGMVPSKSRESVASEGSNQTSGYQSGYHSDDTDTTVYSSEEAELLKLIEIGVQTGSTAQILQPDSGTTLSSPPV

## S=c1[nH]cc(-c2ccc(Cl)cc2)n1/N=C/c1ccccc1 [Compound 4a, (E)-1-(Benzylideneamino)-5-(4-chlorophenyl)-1H-imidazole-2(3H)-thione]
[1]
  IC50: > 50 µM
[2]
  IC50: 61.8 ± 4.1 µM
[3]; Homo sapiens, HCT-116, 24 h
  IC50: 20.6 ± 1.4 µM
other
  melting point: 121 to 123 °C

## Oc1ccccc1/C=N/n1c(-c2ccc(Cl)cc2)c[nH]c1=S [Compound 4b, (E)-5-(4-Chlorophenyl)-1-(2-hydroxybenzylideneamino)-1H-imidazole-2(3H)-thione]
[1]
  IC50: 24.9 ± 1.6 µM
[2]
  IC50: > 50 µM
[3]; Homo sapiens, HCT-116, 24 h
  IC50: 23.5 ± 1.6 µM
other
  melting point: 128 to 130 °C

## Oc1ccc(Br)cc1/C=N/n1c(-c2ccc(Cl)cc2)c[nH]c1=S [Compound 4c, (E)-1-(5-Bromo-2-hydroxybenzylideneamino)-5-(4-chlorophenyl)-1H-imidazole-2(3H)-thione]
[1]
  IC50: 44 ± 2.9 µM
[2]
  IC50: 11.4 ± 0.8 µM
[3]; Homo sapiens, HCT-116, 24 h
  IC50: 9.96 ± 0.7 µM
other
  melting point: 191 to 193 °C

## COc1ccc(/C=N/n2c(-c3ccc(Cl)cc3)c[nH]c2=S)cc1 [Compound 4d, (E)-5-(4-Chlorophenyl)-1-(4-methoxybenzylideneamino)-1H-imidazole-2(3H)-thione]
[1]
  IC50: 7.97 ± 0.5 µM
[2]
  IC50: 4.09 ± 0.3 µM
[3]; Homo sapiens, HCT-116, 24 h
  IC50: 28.9 ± 1.9 µM
[4]
  cytotoxic effect towards MCF-10A (in words): weak cytotoxic effect
  IC50: 44.06 ± 0.23 µM
MCF-7 cells [5]
  percentage of cells at pre-G1 phase: 22.36%
  percentage of cell population at the G2/M phase: 35.55%
MCF-7 cells [6]
  percent of early apoptosis: 6.12%
  percent of late apoptosis: 10.23%
Human VEGFR-2
  IC50: 0.721 µM
B-Raf^V600E
  IC50: 38 µM

## S=c1[nH]cc(-c2ccc(Cl)cc2)n1/N=C/C=C/c1ccccc1 [Compound 4e, 5-(4-Chlorophenyl)-1-((E)-((E)-3-phenylallylidene)amino)-1H-imidazole-2(3H)-thione]
[1]
  IC50: 13.2 ± 0.9 µM
[2]
  IC50: 17 ± 1.1 µM
[3]; Homo sapiens, HCT-116, 24 h
  IC50: 3.99 ± 0.3 µM
other
  melting point: 139 to 141 °C

## COc1ccc(-c2c[nH]c(=S)n2/N=C/c2ccccc2O)cc1 [Compound 5, (E)-1-(2-Hydroxybenzylideneamino)-5-(4-methoxyphenyl)-1H-imidazole-2(3H)-thione]
[3]
  IC50: 3.99 ± 0.3 µM
[3]; Homo sapiens, HCT-116, 24 h
  IC50: < 5 µM
[4]
  cytotoxic effect towards MCF-10A (in words): weak cytotoxic effect
  IC50: 27.8 ± 0.31 µM
MCF-7 cells [5]
  percentage of cells at pre-G1 phase: 22.81%
  percentage of cell population at the G2/M phase: 25.63%
MCF-7 cells [6]
  percent of early apoptosis: 2.66%
  percent of late apoptosis: 13.64%
Human VEGFR-2
  IC50: 0.252 µM
B-Raf^V600E
  IC50: 7.31 µM

## CC(=O)Oc1ccccc1/C=N/n1c(-c2ccc(Cl)cc2)cn(C(C)=O)c1=S [Compound 6, (E)-2-((3-Acetyl-5-(4-chlorophenyl)-2-thioxo-2,3-dihydro-1H-imidazol-1-ylimino)methyl)phenyl Acetate]
other
  melting point: 115 to 117 °C

## CC(=O)O[C@@]12CO[C@@H]1C[C@H](O)[C@@]1(C)C(=O)[C@H](O)C3=C(C)[C@@H](OC(=O)[C@H](O)[C@@H](NC(=O)OC(C)(C)C)c4ccccc4)C[C@@](O)([C@@H](OC(=O)c4ccccc4)[C@H]21)C3(C)C [DOC, Docetaxel, reference compound]
[1]
  IC50: 11.1 ± 0.7 µM
[2]
  IC50: 8.13 ± 0.5 µM
[3]; Homo sapiens, HCT-116, 24 h
  IC50: 14 ± 0.9 µM
[4]
  IC50: 33.17 ± 0.19 µM

## CNC(=O)c1cc(Oc2ccc(NC(=O)Nc3ccc(Cl)c(C(F)(F)F)c3)cc2)ccn1 [SOR]
MCF-7 cell line
  IC50: 1.12 µM

## CCOC(=O)/C(C#N)=C(\c1ccc(O)cc1)n1cc(O)n(/N=C/C=C/c2ccccc2)c1=S [compound III]
MCF-7 cell line
  IC50: 3.26 µM
